Values quoted from earlier work, collected in patent US6656217B1, “Medical device coated with a polymer containing a nitric oxide releasing organometallic nitrosyl compound useful for the prevention of platelet aggregation” (NovoVascular, Inc., priority 1996, dated 2003).

Tested on: platelet aggregation

[Cl][Ru]([Cl])[Cl].[N-]=O [ruthenium nitrosyl trichioride]
inhibition of platelet aggregation by nitric oxide generation from light activation: failed to inhibit platelet aggregation
